Assay results taken from patent US10125095B2, “Abscisic acid derivative” (NATIONAL UNIVERSITY CORPORATION SHIZUOKA UNIVERSITY, priority 2014, dated 2018).

Key:
[1] = tested on: seeds of thale cress (Arabidopsis thaliana, Col-0); experiment: Thale cress seed germination test; assay type: in vivo
Description: Seeds of thale cress (Arabidopsis thaliana, Col-0) were immersed in 500 μL of an aqueous solution of 70% ethanol for 30 minutes, subsequently in 500 μL of a 100% ethanol solution for 1 minute, washed five times in 1 mL of distilled water, then immersed in distilled water and, in a dark place, vernalized at 4° C. for 3 days. A solution of the sample in methanol was put in a 1.5 mL-microtube, and methanol was removed therefrom under reduced pressure. An aqueous solution of 0.5% agar (containing ½ MS medium inorganic salts) at 70° C. was added thereto and stirred, and subsequently the obtained mixture was placed in a 96-well plate to prepare the medium containing the sample. All samples were prepared so as to have a concentration of 3 μM of the compound in Examples 1 to 9 and Comparative Example 1. Further, when ABA is applied, the ABA concentration was adjusted to 0.3 μM. 20 to 30 vernalized seeds of thale cress were planted in each well and cultured at 22° C. under continuous light to monitor the number of seeds germinated over time. The germination rate was calculated by the following formula (1). Note that those cultured in medium prepared using methanol in the same manner were used as controls. […] Germination rate (%)=Number of seeds germinated/Number of seeds planted×100 (1)
The same test was carried out as in Test Example 1 with the concentrations of the compound of Example 1 for treatment varying from 0.3 μM to 30 μM.
Similarly, the same test was carried out with the concentrations of the compound of Example 2 for treatment varying from 0.3 μM to 30 μM.
The same test was carried out as in Test Example 2 with the concentrations of the compounds for treatment varying from 0.3 μM to 3 μM to compare the recovery effects on seed germination rate of the compound of Example 1 and the compound of Comparative Example 1.

[2] = tested on: lettuce (Lactuca saliva) seeds; experiment: Lettuce seed germination test; assay type: in vivo; conditions: co-applied with ABA
[3] = tested on: bok choy (Brassica rapa var. chinensis) seeds; experiment: Bok choy seed germination test; assay type: in vivo; conditions: co-applied with ABA
recombined PYL5 = target: T1, recombined PYL5 (Arabidopsis thaliana, UniProt Q9FLB1); experiment: Bonding affinity measurement using an isothermal titration calorimeter; assay type: binding, thale cress; conditions: ITC, 20° C., sodium phosphate buffer
T1 construct: 6xHis (N); made in house; host or cells: Escherichia coli BL21-codonplus(DE3)-RIPL
T1 sequence (Q9FLB1 1-203): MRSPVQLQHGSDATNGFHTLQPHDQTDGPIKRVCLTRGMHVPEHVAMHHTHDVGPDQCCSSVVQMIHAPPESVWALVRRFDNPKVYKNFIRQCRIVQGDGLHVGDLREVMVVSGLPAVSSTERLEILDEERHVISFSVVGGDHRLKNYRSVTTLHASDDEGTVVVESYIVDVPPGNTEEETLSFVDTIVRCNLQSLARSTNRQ
Description: A sodium phosphate buffer solution of a recombined PYL5 was prepared in the same procedure as in Test Example 5, and put in a reaction cell of an isothermal titration calorimeter (GE Healthcare, MicroCal iTC200), and a sodium phosphate buffer solution of the compound of Example 1 was put in the syringe. Then, the calorimeter was set to 20° C. and the measurement was carded out. The same measurement as above was also carried out for the compounds of Examples 7 to 9.

[4] = tested on: thale cress (Arabidopsis thaliana, Col-0) seedlings; experiment: Thale cress growth test; assay type: in vivo; conditions: 50 μM compound co-applied with 5 μM ABA, sprayed once a day; three weeks' culture
Description: Seeds of thale cress (Arabidopsis thaliana, Col-0) were sequentially immersed for 1 minute respectively in 500 μL of an aqueous solution of 5% bleach+1% SDS, 500 μL of a 70% aqueous solution of ethanol and 500 μL of a 70% aqueous solution of ethanol, washed five times in 1 mL of sterilized water, and then suspended in a 0.1% aqueous solution of agar. 25 mL each of germination medium (containing ½ MS medium inorganic salts) sterilized in an autoclave was added to a sterilized plastic petri dish, in which 60 to 80 seeds suspended in the 0.1% aqueous solution of agar were planted and, in a dark place, the seeds were vernilized at 4° C. for 3 days. The seeds were cultured at 22° C. under continuous light for 10 days. 40 g […] of sterilized soil (organic culture soil:vermiculite=1:1) was added to a plastic pot (50 mm×50 mm×50 mm, 35 mm bottom surface×35 mm height). Six plastic pots thus provided were placed in a 3000 mL-tray, 300 mL (depth 10 mm) of an aqueous solution of 1000-fold diluted HYPONeX (tradename (registered trademark), product of HYPONeX JAPAN CORP., LTD.) was added thereto and five roots each of thale cress seedlings were transplanted from the plastic petri dish. The seedlings were cultured at 22° C. under conditions of 16 hour light period-8 hour dark period, and 1 mL of an aqueous solution (prepared so as the final concentration of the compound of Example 7 to be 50 μM) of 0.1% DMSO (containing the compound of Example 7)+0.1% Approach BI (tradename (registered trademark), product of Kao Corporation) was sprayed once a day. Further, 300 mL of an aqueous solution of 2000-fold diluted HYPONeX was added every week. The same treatment as above was carried out using the compound of Comparative Example 1. Note that the seedlings, to which 1 mL of an aqueous solution of 0.1% DMSO+0.1% Approach BI without containing the above compound was sprayed once a day, were used as controls. […]

[5] = 3 μM compound co-applied with 0.3 μM ABA

CC1=C[C@@H](OCC#Cc2cccc3ccccc23)CC(C)(C)[C@@]1(O)/C=C/C(C)=C\C(=O)O [Example 2]
Germination rate (%) 24 Hours later [1, 5]: 9% | Germination rate (%) 36 Hours later [1, 5]: 22% | Germination rate (%) 48 Hours later [1, 5]: 53% | Germination rate (%) 60 Hours later [1, 5]: 89% | Recovery of seed germination rate decreased by ABA ([1]; compound 0.3 μM to 30 μM co-applied with ABA): seed germination rates decreased by ABA are recovered | Germination rate (%) 24 Hours later ([1]; compound alone, 3 μM): 11% | Germination rate (%) 36 Hours later ([1]; compound alone, 3 μM): 27% | Germination rate (%) 48 Hours later ([1]; compound alone, 3 μM): 77% | Germination rate (%) 60 Hours later ([1]; compound alone, 3 μM): 100% | Recovery of seed germination rate decreased by ABA [2]: recovered the seed germination rates once decreased by ABA | Recovery of seed germination rate decreased by ABA [3]: recovered the seed germination rates once decreased by ABA

CCCCCCSC1=C(C)[C@](O)(/C=C/C(C)=C\C(=O)O)C(C)(C)CC1=O [Comparative Example 1, 3′-hexylsulfanyl-abscisic acid, reference compound]
Germination rate (%) 24 Hours later [1, 5]: 0% | Germination rate (%) 36 Hours later [1, 5]: 28% | Germination rate (%) 48 Hours later [1, 5]: 67% | Germination rate (%) 60 Hours later [1, 5]: 89% | Germination rate (%) 24 Hours later ([1]; compound alone, 3 μM): 0% | Germination rate (%) 36 Hours later ([1]; compound alone, 3 μM): 85% | Germination rate (%) 48 Hours later ([1]; compound alone, 3 μM): 100% | Germination rate (%) 60 Hours later ([1]; compound alone, 3 μM): 100% | Kd (recombined PYL5): 0.48 ± 0.1 µM | ΔG (recombined PYL5): -9.6 ± 0.1 kcal/mol | ΔH (recombined PYL5): -9.7 ± 0.2 kcal/mol | −TΔS (recombined PYL5): 1.2 kcal/mol | Growth suppression effect of ABA on thale cress [4]: the growth suppression effect of ABA was not substantially improved
